17 compounds from patent US20200172529A1, “Chemical Compound, Pharmaceutical Composition Thereof, and Use and Application Thereof” (Beijing Hanmi Pharm. Co., Ltd., priority 2017, published 2020) can be followed below.

pIC50: −log10 of the molar value.

Type in all cases: biochemical
One test deals with T1, TYK2 kinase (Homo sapiens, UniProt P29597).
T1 construct: purchased Life Technologies PR8440C
Put plainly: Inhibition assay of TYK2 kinase activity (ADP-Glo Kinase Assay). In short, it runs like this:
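Enzyme at 0.8 ng/mL (2-fold final) in 40 mM Tris-HCl pH 7.5, 20 mM MgCl2, 0.1 mg/mL BSA, 1 mM DTT, preincubated 10 min with compound (6 points, 10-fold dilutions from 10 μM). ATP plus polyE4Y1 then added for 60 min at room temperature. ADP-Glo luminescence read and IC50 derived.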
In general terms: ADP-Glo turns the ADP formed in a reaction into a luminescent signal.

In another test the target is JAK1 kinase (Homo sapiens, UniProt P23458). Put plainly: Inhibition assay of JAK1 kinase activity (ADP-Glo Kinase Assay). The source says:
Inhibition assay of JAK1 kinase activity: the method in ADP-Glo™ Kinase Assay (Promega, V9102) was used to determine the inhibitory activity of the test compounds against JAK1 kinase.

A further test has as its target SYK kinase (Homo sapiens, UniProt P43405). Put plainly: Inhibition assay of SYK kinase activity (ADP-Glo Kinase Assay). The source says: Inhibition assay of SYK kinase activity: the method in ADP-Glo™ Kinase Assay (Promega, V9102) was used to determine the inhibitory activity of the test compounds against SYK kinase.
Another test deals with T2, JAK3 kinase (Homo sapiens, UniProt P52333).
T2 sequence (P52333 1-1124): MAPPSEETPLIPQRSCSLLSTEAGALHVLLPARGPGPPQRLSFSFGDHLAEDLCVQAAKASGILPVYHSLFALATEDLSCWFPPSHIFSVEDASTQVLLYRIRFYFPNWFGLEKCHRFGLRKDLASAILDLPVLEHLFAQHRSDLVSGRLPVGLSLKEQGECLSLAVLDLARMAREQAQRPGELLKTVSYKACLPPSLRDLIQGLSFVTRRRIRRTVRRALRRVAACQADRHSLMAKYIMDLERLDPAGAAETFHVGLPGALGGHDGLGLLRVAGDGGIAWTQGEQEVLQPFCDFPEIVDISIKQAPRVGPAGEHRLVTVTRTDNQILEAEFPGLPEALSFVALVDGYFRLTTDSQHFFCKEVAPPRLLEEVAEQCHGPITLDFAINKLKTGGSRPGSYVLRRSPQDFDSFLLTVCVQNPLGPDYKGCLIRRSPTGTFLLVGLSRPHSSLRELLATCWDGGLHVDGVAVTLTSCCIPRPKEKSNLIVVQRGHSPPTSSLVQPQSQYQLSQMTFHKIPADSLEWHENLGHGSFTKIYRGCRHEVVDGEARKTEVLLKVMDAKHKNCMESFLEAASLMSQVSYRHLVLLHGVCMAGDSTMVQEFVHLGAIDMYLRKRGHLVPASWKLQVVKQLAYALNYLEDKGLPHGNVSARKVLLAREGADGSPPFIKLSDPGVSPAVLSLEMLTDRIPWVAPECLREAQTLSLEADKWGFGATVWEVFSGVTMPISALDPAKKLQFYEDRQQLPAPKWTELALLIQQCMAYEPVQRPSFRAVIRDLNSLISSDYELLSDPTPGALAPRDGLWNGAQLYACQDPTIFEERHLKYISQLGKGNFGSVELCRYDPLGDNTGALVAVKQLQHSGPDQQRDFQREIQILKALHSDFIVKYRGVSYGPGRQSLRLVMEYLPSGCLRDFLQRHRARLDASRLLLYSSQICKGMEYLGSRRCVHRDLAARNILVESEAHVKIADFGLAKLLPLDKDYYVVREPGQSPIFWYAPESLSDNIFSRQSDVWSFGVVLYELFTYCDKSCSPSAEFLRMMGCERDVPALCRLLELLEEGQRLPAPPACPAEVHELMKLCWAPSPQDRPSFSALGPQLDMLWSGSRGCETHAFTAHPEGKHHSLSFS
Kind of test: Inhibition assay of JAK3 kinase activity (ADP-Glo Kinase Assay). An excerpt:
Inhibition assay of JAK3 kinase activity: the method in ADP-Glo™ Kinase Assay (Promega, V9102) was used to determine the inhibitory activity of the test compounds against JAK3 kinase.

For a further test, the target named is JAK2 kinase (Homo sapiens, UniProt O60674). Kind of test: Inhibition assay of JAK2 kinase activity (ADP-Glo Kinase Assay). An excerpt: Inhibition assay of JAK2 kinase activity: the method in ADP-Glo™ Kinase Assay (Promega, V9102) was used to determine the inhibitory activity of the test compounds against JAK2 kinase.
Chain of JAK2 kinase (O60674 whole entry): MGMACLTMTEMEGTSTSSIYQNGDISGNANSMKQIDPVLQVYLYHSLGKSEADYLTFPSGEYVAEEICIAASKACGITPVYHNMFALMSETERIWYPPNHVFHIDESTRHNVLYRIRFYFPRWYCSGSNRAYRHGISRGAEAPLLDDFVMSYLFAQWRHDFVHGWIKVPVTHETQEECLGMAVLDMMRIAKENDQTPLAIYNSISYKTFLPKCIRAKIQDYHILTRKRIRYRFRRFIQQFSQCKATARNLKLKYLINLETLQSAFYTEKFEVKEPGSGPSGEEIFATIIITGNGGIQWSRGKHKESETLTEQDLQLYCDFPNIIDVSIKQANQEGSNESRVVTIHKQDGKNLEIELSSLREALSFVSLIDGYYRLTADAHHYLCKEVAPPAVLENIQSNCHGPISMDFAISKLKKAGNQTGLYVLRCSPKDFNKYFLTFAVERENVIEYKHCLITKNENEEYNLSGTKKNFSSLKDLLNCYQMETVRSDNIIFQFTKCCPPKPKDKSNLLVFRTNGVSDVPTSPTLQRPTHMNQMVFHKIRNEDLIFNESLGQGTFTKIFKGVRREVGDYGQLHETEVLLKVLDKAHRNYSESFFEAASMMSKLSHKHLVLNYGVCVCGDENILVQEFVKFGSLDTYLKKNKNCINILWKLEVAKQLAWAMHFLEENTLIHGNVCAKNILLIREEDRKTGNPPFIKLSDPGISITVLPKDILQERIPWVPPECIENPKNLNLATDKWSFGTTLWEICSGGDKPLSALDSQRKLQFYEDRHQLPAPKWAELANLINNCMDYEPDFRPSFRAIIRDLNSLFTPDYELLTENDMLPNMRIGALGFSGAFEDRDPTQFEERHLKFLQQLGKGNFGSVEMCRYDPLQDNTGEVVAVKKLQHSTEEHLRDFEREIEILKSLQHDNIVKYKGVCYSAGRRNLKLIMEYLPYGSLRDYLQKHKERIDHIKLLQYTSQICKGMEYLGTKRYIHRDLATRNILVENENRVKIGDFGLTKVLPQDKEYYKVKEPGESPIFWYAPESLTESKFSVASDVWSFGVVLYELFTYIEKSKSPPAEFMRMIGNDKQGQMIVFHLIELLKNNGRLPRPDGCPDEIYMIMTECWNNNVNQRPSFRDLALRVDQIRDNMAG

T1 sequence (P29597 whole entry): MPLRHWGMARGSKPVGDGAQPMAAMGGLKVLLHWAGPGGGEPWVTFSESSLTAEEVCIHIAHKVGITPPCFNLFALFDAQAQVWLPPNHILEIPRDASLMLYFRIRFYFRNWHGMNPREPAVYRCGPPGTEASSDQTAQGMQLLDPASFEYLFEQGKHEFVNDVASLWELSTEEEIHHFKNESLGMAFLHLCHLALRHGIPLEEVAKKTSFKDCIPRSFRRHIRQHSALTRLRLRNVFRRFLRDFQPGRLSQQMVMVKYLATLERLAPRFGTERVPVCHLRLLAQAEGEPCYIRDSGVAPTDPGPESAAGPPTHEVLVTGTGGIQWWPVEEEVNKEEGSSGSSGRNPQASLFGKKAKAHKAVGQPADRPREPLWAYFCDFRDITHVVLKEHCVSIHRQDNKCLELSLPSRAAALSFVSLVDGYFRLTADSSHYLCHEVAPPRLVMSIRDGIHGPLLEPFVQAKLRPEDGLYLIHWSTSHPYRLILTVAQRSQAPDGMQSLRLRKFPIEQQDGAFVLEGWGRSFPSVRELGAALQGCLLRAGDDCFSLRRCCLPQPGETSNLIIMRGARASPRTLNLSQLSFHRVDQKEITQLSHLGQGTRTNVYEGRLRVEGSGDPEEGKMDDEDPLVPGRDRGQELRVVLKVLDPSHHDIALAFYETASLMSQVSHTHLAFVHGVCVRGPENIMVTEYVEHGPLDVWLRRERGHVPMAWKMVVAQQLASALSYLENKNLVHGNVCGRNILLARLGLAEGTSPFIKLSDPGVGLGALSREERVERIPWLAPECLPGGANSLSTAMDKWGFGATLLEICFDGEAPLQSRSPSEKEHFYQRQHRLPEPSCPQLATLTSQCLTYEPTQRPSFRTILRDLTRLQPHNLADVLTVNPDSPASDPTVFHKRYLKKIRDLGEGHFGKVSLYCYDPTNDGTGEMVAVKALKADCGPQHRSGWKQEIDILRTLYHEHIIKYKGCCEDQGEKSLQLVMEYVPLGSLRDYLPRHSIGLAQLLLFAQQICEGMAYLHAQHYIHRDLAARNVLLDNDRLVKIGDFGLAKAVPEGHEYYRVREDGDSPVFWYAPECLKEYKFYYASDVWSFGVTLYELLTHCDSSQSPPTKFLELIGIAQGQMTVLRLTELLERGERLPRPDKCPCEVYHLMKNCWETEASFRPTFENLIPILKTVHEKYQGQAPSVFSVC
Chain of JAK1 kinase (P23458 whole entry): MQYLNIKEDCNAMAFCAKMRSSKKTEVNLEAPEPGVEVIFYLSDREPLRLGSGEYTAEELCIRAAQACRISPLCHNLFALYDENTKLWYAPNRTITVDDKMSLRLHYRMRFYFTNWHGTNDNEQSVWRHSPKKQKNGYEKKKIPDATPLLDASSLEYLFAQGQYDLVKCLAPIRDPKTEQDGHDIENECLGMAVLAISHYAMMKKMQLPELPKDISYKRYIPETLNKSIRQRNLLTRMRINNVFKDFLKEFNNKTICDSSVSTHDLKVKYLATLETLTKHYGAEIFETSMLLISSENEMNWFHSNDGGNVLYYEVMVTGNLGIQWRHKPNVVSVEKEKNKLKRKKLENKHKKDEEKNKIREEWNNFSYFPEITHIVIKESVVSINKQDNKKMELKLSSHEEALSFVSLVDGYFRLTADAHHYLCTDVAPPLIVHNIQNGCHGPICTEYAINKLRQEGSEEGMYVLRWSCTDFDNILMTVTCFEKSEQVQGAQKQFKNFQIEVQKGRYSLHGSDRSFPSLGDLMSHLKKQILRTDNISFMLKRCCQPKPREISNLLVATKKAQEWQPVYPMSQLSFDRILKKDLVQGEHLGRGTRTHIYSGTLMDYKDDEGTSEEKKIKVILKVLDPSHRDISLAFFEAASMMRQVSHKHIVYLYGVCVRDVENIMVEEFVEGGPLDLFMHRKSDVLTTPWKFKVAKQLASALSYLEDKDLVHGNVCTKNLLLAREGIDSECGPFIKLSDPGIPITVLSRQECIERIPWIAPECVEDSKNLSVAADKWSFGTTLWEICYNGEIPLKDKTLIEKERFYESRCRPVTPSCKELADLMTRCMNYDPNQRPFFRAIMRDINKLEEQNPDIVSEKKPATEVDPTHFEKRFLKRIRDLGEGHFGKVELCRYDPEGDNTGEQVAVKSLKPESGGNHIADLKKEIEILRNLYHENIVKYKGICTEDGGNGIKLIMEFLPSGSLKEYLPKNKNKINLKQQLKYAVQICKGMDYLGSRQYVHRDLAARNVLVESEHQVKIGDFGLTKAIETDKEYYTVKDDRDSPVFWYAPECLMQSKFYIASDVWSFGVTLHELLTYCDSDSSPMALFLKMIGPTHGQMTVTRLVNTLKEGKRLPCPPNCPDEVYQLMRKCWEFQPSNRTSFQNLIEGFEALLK

In the case of `NC(=O)c1cnc(Nc2ccc3c(c2)NCC(O)CO3)nc1NC1CCC1` (stereo not drawn) [Example 1, 4-(cyclobutylamino)-2-((3-hydroxy-2,3,4,5-tetrahydro-benzo[b][1,4]oxazepin-7-yl)amino)pyrimidin-5-carboxamide], the negative logarithm of the IC50 (pIC50) against TYK2 kinase is > 8.00; against JAK1 kinase, > 8.00; at SYK kinase, 7.00 to 8.00.

Take `COC1CNc2cc(Nc3ncc(C(N)=O)c(NC4CC4)n3)ccc2OC1` (stereo not drawn) [Example 24, 4-(cyclopropylamino)-2-((3-methoxy-2,3,4,5-tetrahydro-benzo[b][1,4]oxazepin-7-yl)amino)pyrimidin-5-carboxamide]: the pIC50 against JAK3 kinase was 7.00 to 8.00; against JAK2 kinase it was 7.00 to 8.00; at TYK2 kinase, > 8.00; against JAK1 kinase, 7.00 to 8.00; at SYK kinase, 7.00 to 8.00.

On to `NC(=O)c1cnc(Nc2ccc3c(c2)NC[C@@H](O)CO3)nc1NC1CC1` [Example 25, (R)-4-(cyclopropylamino)-2-((3-hydroxy-2,3,4,5-tetrahydro-benzo[b][1,4]oxazepin-7-yl)amino)pyrimidin-5-carboxamide], for which the negative logarithm of the IC50 (pIC50) was > 8.00 on JAK3 kinase; > 8.00 at JAK2 kinase; > 8.00 at TYK2 kinase; 7.00 to 8.00 against JAK1 kinase; 7.00 to 8.00 against SYK kinase.

Regarding `NC(=O)c1cnc(Nc2ccc3c(c2)NC[C@H](O)CO3)nc1NCC1CC1` [Example 44, 4-((cyclopropylmethyl)amino)-2-(((S)-2,3,4,5-tetrahydro-3-hydroxybenzo[b][1,4]oxazepin-7-yl)amino)pyrimidin-5-carboxamide], the negative logarithm of the IC50 (pIC50) against JAK3 kinase is > 8.00; at JAK2 kinase it was > 8.00; at TYK2 kinase it was > 8.00; on JAK1 kinase it was > 8.00; against SYK kinase, 7.00 to 8.00.

As for `NC(=O)c1cnc(Nc2ccc3c(c2)NC[C@H](O)CO3)nc1NC1CC1F` (stereo partly drawn) [Example 57, 4-((2-fluorocyclopropyl)amino)-2-(((S)-2,3,4,5-tetrahydro-3-hydroxybenzo[b][1,4]oxazepin-7-yl)amino)pyrimidin-5-carboxamide], the pIC50 at JAK3 kinase is 7.00 to 8.00; on JAK2 kinase, 7.00 to 8.00; against TYK2 kinase, > 8.00; on JAK1 kinase it was > 8.00; against SYK kinase it was 7.00 to 8.00.

Consider `CS(=O)(=O)CCNc1nc(Nc2ccc3c(c2)NC[C@H](O)CO3)ncc1C(N)=O` [Example 67, 4-((2-methanesulfonylethyl)amino)-2-(((S)-2,3,4,5-tetrahydro-3-hydroxybenzo[b][1,4]oxazepin-7-yl)amino)pyrimidin-5-carboxamide], for which the pIC50 against JAK3 kinase was 7.00 to 8.00; at JAK2 kinase, 7.00 to 8.00; against TYK2 kinase it was > 8.00; against JAK1 kinase it was 7.00 to 8.00.

Regarding `CC(C)CNc1nc(Nc2ccc3c(c2)NC[C@H](O)CO3)ncc1C(N)=O` [Example 70, 4-(isobutylamino)-2-(((S)-2,3,4,5-tetrahydro-3-hydroxybenzo[b][1,4]oxazepin-7-yl)amino)pyrimidin-5-carboxamide], the pIC50 on JAK3 kinase, against JAK2 kinase, against TYK2 kinase and against JAK1 kinase was > 8.00 in each case.

With `NC(=O)c1cnc(Nc2ccc3c(c2)NC[C@H](O)CO3)nc1NCC1CCCC1` [Example 73, 4-((cyclopentylmethyl)amino)-2-(((S)-2,3,4,5-tetrahydro-3-hydroxybenzo[b][1,4]oxazepin-7-yl)amino)pyrimidin-5-carboxamide], the pIC50 on JAK3 kinase, against JAK2 kinase, against TYK2 kinase and against JAK1 kinase was > 8.00 each time.

Turning to `CCCCNc1nc(Nc2ccc3c(c2)NC[C@H](O)CO3)ncc1C(N)=O` [Example 74, 4-(butylamino)-2-(((S)-2,3,4,5-tetrahydro-3-hydroxybenzo[b][1,4]oxazepin-7-yl)amino)pyrimidin-5-carboxamide], the pIC50 against JAK3 kinase, against JAK2 kinase, against TYK2 kinase and on JAK1 kinase was > 8.00 each time.

For the compound `CCCCCNc1nc(Nc2ccc3c(c2)NC[C@H](O)CO3)ncc1C(N)=O` [Example 75, 4-(pentylamino)-2-(((S)-2,3,4,5-tetrahydro-3-hydroxybenzo[b][1,4]oxazepin-7-yl)amino)pyrimidin-5-carboxamide], the pIC50 on JAK3 kinase, on JAK2 kinase, on TYK2 kinase and against JAK1 kinase was > 8.00 throughout.

Turning to `CCCO[C@H]1CNc2cc(Nc3ncc(C(N)=O)c(NC4CC4)n3)ccc2OC1` [Example 82, 4-(cyclopropylamino)-2-(((S)-2,3,4,5-tetrahydro-3-propoxybenzo[b][1,4]oxazepin-7-yl)amino)pyrimidin-5-carboxamide], the negative-log IC50 (pIC50) on JAK3 kinase is 7.00 to 8.00; at JAK2 kinase, 7.00 to 8.00; at TYK2 kinase, > 8.00; against JAK1 kinase, > 8.00.

As to `CO[C@H]1CNc2cc(Nc3ncc(C(N)=O)c(NC4C5CC6CC4CC(O)(C6)C5)n3)ccc2OC1` (stereo partly drawn) [Example 90, 4-((5-hydroxyadamantan-2-yl)amino)-2-(((S)-2,3,4,5-tetrahydro-3-methoxybenzo[b][1,4]oxazepin-7-yl)amino)pyrimidin-5-carboxamide], the pIC50 against JAK3 kinase is > 8.00; at JAK2 kinase, > 8.00; against TYK2 kinase it was > 8.00; against SYK kinase, 7.00 to 8.00.

Regarding `CO[C@H]1CNc2cc(Nc3ncc(C(N)=O)c(NC4C5CC6CC4CC(OC)(C6)C5)n3)ccc2OC1` (stereo partly drawn) [Example 93, 4-((5-methoxyadamantan-2-yl)amino)-2-(((S)-2,3,4,5-tetrahydro-3-methoxybenzo[b][1,4]oxazepin-7-yl)amino)pyrimidin-5-carboxamide], the pIC50 against JAK3 kinase, on JAK2 kinase, at TYK2 kinase and at JAK1 kinase was > 8.00 in each case.

Take `NC(=O)c1cnc(Nc2ccc3c(c2)NC[C@H](OCC2CCCCO2)CO3)nc1NC1CC1` (stereo partly drawn) [Example 99, 4-(cyclopropylamino)-2-(((S)-2,3,4,5-tetrahydro-3-(tetrahydro-2H-2-pyranylmethoxy)benzo[b][1,4]oxazepin-7-yl)amino)pyrimidin-5-carboxamide]: the pIC50 was > 8.00 against TYK2 kinase, > 8.00 against JAK1 kinase and 7.00 to 8.00 against SYK kinase.

In the case of `COCCCCO[C@H]1CNc2cc(Nc3ncc(C(N)=O)c(NC4CC4)n3)ccc2OC1` [Example 100, 4-(cyclopropylamino)-2-(((S)-2,3,4,5-tetrahydro-3-(4-methoxybutoxy)benzo[b][1,4]oxazepin-7-yl)amino)pyrimidin-5-carboxamide], the pIC50 was > 8.00 against TYK2 kinase, > 8.00 against JAK1 kinase and 7.00 to 8.00 on SYK kinase.

`NC(=O)c1cnc(Nc2ccc3c(c2)NC[C@H](OCC2CCCOC2)CO3)nc1NC1CC1` (stereo partly drawn) [Example 102, 4-(cyclopropylamino)-2-(((S)-2,3,4,5-tetrahydro-3-((tetrahydropyran-3-yl)methoxy)benzo[b][1,4]oxazepin-7-yl)amino)pyrimidin-5-carboxamide]: the negative-log IC50 (pIC50) against JAK3 kinase was 7.00 to 8.00; at JAK2 kinase, 7.00 to 8.00; at TYK2 kinase it was > 8.00; on JAK1 kinase, > 8.00.

For `CC(C)(C)OCCO[C@H]1CNc2cc(Nc3ncc(C(N)=O)c(NC4CC4)n3)ccc2OC1` [Example 103, 4-(cyclopropylamino)-2-(((S)-2,3,4,5-tetrahydro-3-(2-(tert-butoxy)ethoxy)benzo[b][1,4]oxazepin-7-yl)amino)pyrimidin-5-carboxamide], the negative-log IC50 (pIC50) against JAK3 kinase was 7.00 to 8.00; on JAK2 kinase, 7.00 to 8.00; against TYK2 kinase, > 8.00; at JAK1 kinase, > 8.00.

By pIC50 is commonly meant the IC50 on a negative log10 scale, so that one unit is a factor of ten. The low end stands for a large IC50, the high end for a small IC50.
